Measured values as given in ChEMBL document CHEMBL6103582, “Computer-aided discovery of novel AMPK activators through virtual screening and SAR-driven synthesis” (Eur J Med Chem, 2025).
The source made the active and inactive calls. The rule behind the calls is not given here.

Experiments:
AMPK = assay: Activation of AMPK gamma (unknown origin) assessed as increase in phosphorylation of SAMS peptide by measuring fold change at 10 uM measured after 30 mins by ADP-Glo assay; conditions: Homo sapiens, filed as activator
N2a-APPswe [1] = assay: Activation of AMPK in mouse N2a APPswe cells assessed as increase in phosphorylation by measuring pAMPK/AMPK ratio at 10 uM measured after 24 hrs by Western blot analysis; assay type: cell-based; conditions: filed as activator
N2a-APPswe [2] = assay: Activation of AMPK in mouse N2a-APPswe cells assessed as increase in phosphorylation by measuring pACC/ACC ratio at 10 uM measured after 24 hrs by Western blot analysis; assay type: cell-based; conditions: filed as activator
N2a-APPswe [3] = assay: Activation of AMPK in mouse N2a-APPswe cells assessed as increase in phosphorylation by measuring pAMPK/AMPK ratio at 5 uM measured after 24 hrs by Western blot analysis; assay type: cell-based; conditions: filed as activator
[4] = Cytotoxicity against mouse N2a-APPswe cells assessed as cell viability at 5 uM measured after 24 hrs by WST-1 assay; assay type: toxicity, cell-based
N2a-APPswe [5] = assay: Activation of AMPK in mouse N2a-APPswe cells assessed as increase in phosphorylated ACC at Ser79 at 10 uM measured after 3 hrs by Western blot analysis; assay type: cell-based; conditions: filed as activator
N2a-APPswe [6] = assay: Activation of AMPK in mouse N2a-APPswe cells assessed as increase in phosphorylated Raptor at Ser792 at 10 uM measured after 3 hrs by Western blot analysis; assay type: cell-based; conditions: filed as activator
N2a-APPswe [7] = assay: Activation of AMPK in mouse N2a-APPswe cells assessed as increase in phosphorylated AMPK at Thr172 at 10 uM measured after 3 hrs by Western blot analysis; assay type: cell-based; conditions: filed as activator

SMILES | fold change (FC) (AMPK) | fold change (FC) (N2a-APPswe [1]) | fold change (FC) (N2a-APPswe [2]) | also measured
CN1CCN(c2ccc(C(=O)/C=C/c3ccc(O)cc3)cc2)CC1 | 1.52 | – | – | –
COc1cc(O)ccc1/C=C/C(=O)c1ccc(N2CCNCC2)cc1 | 1.51 | – | – | –
Cc1ccc(C)c(Oc2coc3cc(OCC(=O)OC4CCCCC4)ccc3c2=O)c1 | – | > 1 | – | –
N#CC1C(=O)Nc2scc(-c3ccc(-c4ccccc4O)cc3)c2C1=O (centres undefined) | – | > 1 | > 1 | fold change (FC) (N2a-APPswe [3]): > 1
O=C(O)C1CCCN(C(=O)Cn2nc(-c3ccc4ccccc4c3)ccc2=O)C1 (centres undefined) | – | > 1 | > 1 | –
CCOCCOC(=O)COc1ccc2c(=O)c(Oc3cc(C)ccc3C)coc2c1 | – | > 1 | – | –
COc1ccc(OC)c(/C=C/C(=O)c2ccc(NS(=O)(=O)c3ccc(Cl)cc3)cc2)c1 | 2.45 | – | – | Activity [4]: Non-toxic; Activity (N2a-APPswe [5]): Active; Activity (N2a-APPswe [6]): Active; Activity (N2a-APPswe [7]): Active; fold change (FC) (N2a-APPswe [3]): > 1
CCOC(=O)N1CCN(C(=O)c2ccc(N3CCC(NCCn4nc(C)cc4C)CC3)cc2)CC1 | – | > 1 | > 1 | –
Cc1ccc(C)c(Oc2coc3cc(OCC(=O)OCC(C)C)ccc3c2=O)c1 | – | > 1 | – | –
Cc1cc(-c2cc3c(n(Cc4cccnc4)c2=O)CCN(C(=O)c2ccc4c(c2)OCO4)C3)ccc1F | – | > 1 | > 1 | –
Cc1ccc(C)c(Oc2coc3cc(OCCc4ccccc4)ccc3c2=O)c1 | – | > 1 | – | –
COc1ccc(OC)c(/C=C/C(=O)c2cccc(N)c2)c1 | 2.62 | – | – | Activity [4]: Non-toxic; fold change (FC) (N2a-APPswe [3]): > 1
O=C(/C=C/c1ccc(N2CCCCC2)cc1)c1ccc(O)cc1O | 2.48 | – | – | Activity [4]: Non-toxic; fold change (FC) (N2a-APPswe [3]): > 1
Nc1cccc(C(=O)/C=C/c2ccc(N3CCCCC3)cc2)c1 | 2.05 | – | – | Activity [4]: Non-toxic; fold change (FC) (N2a-APPswe [3]): > 1
Cc1ccc(C)c(Oc2coc3cc(OCc4ccc(F)cc4)ccc3c2=O)c1 | – | > 1 | – | –
Cc1cc(C)c(C)c(Oc2coc3cc(OC(=O)C(C)N4C(=O)c5ccccc5C4=O)ccc3c2=O)c1 (centres undefined) | – | > 1 | – | –
COc1ccc(/C=C/C(=O)c2ccc(N)cc2)c(OC)c1 | – | – | – | Activity [4]: Non-toxic
COc1ccc(OC)c(/C=C/C(=O)c2cccc(N(S(=O)(=O)c3ccc(Cl)cc3)S(=O)(=O)c3ccc(Cl)cc3)c2)c1 | 2.53 | – | – | Activity [4]: Non-toxic; fold change (FC) (N2a-APPswe [3]): > 1
COc1cc(O)ccc1/C=C/C(=O)c1cccc(N)c1 | 1.73 | – | – | –
COc1ccc(/C=C/C(=O)c2cccc(NS(=O)(=O)c3ccc(Cl)cc3)c2)cc1 | 1.82 | – | – | –

SMILES | fold change (FC) (AMPK) | fold change (FC) (N2a-APPswe [1]) | fold change (FC) (N2a-APPswe [2]) | also measured
Cc1ccc(NCc2ccc(C(=O)N3CCC(C(=O)O)CC3)cc2)cc1 | – | > 1 | > 1 | –
Cc1ccc(C)c(Oc2coc3cc(OC(=O)c4cccc(Br)c4)ccc3c2=O)c1 | – | > 1 | > 1 | –
COc1ccc(OC)c(/C=C/C(=O)c2ccc(N)cc2)c1 | 1.93 | – | – | –
O=C(CCn1cnnn1)N1CCCC(N2CCN(c3cccc(C(F)(F)F)c3)CC2)C1 (centres undefined) | – | > 1 | > 1 | –
COc1ccc(OC)c(C(=O)c2ccc(C(=O)N3CCc4c(cnc(C)c4CNC(C)=O)C3)cc2)c1 | – | > 1 | > 1 | –
Cc1ccc(C)c(Oc2coc3cc(OC(=O)c4ccc(-c5ccccc5)cc4)ccc3c2=O)c1 | – | > 1 | – | –
Cn1ccnc1CNC(=O)CCc1nnc(-c2ccc(-c3ccccc3)cc2)o1 | – | > 1 | > 1 | –
CCOC(=O)c1nn(CCCc2ccccc2)c2c1CN(C(=O)Cn1nc3ccccc3n1)CC2 | – | > 1 | > 1 | –
COc1ccc2c(=O)c(Oc3cc(C)ccc3C)coc2c1 | – | > 1 | – | –
Cc1ccc(C)c(Oc2coc3cc(OCc4ccc(Cl)cc4Cl)ccc3c2=O)c1 | – | > 1 | – | –
Cc1ccc(CCC(=O)Nc2ccc3c(c2)CN(C(=O)CCn2cnnn2)CC3)cc1 | – | > 1 | > 1 | –
COc1ccc(OC)c(/C=C/C(=O)c2cccc(NS(=O)(=O)c3ccc(Cl)cc3)c2)c1 | 1.94 | – | – | –
CN1[C@@H](c2ccccc2)[C@@H](C(=O)NCCn2ccnc2)C[C@@]1(C)C(=O)O | – | > 1 | > 1 | –
COc1ccc(/C=C/C(=O)c2cccc(N)c2)cc1 | 2.3 | – | – | Activity [4]: Non-toxic; fold change (FC) (N2a-APPswe [3]): > 1
O=C(/C=C/c1ccc(N2CCCCC2)cc1)c1ccc(O)cc1 | 2.96 | – | – | Activity [4]: Non-toxic; fold change (FC) (N2a-APPswe [3]): > 1
COCCN1C(=O)N(Cc2cccnc2)C(=O)C12CCN(Cc1nc(-c3ccccc3)cs1)CC2 | – | > 1 | < 1 | –
NC(=O)c1ncn([C@@H]2O[C@H](CO)[C@@H](O)[C@H]2O)c1N | – | > 1 | > 1 | –
Cc1ccccc1-c1noc(CCC(=O)NC(C)c2ccccc2-n2cccn2)n1 (centres undefined) | – | > 1 | > 1 | –
Nc1ccc(C(=O)/C=C/c2ccc(N3CCCCC3)cc2)cc1 | 2.16 | – | – | Activity [4]: Non-toxic; fold change (FC) (N2a-APPswe [3]): > 1
